Columns and labels:
[1] = biological target: T1, hHMGR (Homo sapiens, UniProt P04035); experiment: Enzymatic assay of recombinant hHMGR; type: biochemical; conditions: result in words, Figure 4
T1 sequence (P04035 450-883 limits assumed): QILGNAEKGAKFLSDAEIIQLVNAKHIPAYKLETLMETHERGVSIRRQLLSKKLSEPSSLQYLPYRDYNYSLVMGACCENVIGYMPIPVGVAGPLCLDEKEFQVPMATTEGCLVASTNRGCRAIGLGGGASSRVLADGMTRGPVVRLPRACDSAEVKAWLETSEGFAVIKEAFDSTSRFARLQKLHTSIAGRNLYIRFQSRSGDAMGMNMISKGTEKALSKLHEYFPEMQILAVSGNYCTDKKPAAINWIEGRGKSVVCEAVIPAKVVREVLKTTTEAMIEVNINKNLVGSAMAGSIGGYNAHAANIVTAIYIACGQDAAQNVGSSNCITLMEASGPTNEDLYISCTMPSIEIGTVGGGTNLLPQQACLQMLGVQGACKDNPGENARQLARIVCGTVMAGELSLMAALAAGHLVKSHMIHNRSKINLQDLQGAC

[2] = test system: HepG2 cells; experiment: MTT assay, cellular toxicity on HepG2 cells; type: cell-based; conditions: 24 h treatment, result in words

inhibition of hHMGR activities [1]	SMILES	cytotoxic effect [2]
effectively inhibit	COc1cc(/C=C/C(=O)CC(=O)/C=C/c2ccc(O)c(OC)c2)ccc1O [Compound 3, (1E,6E)-1,7-bis(4-hydroxy-3-methoxyphenyl)-1,6-heptadiene-3,5-dione]	–
effectively inhibit	O=C(/C=C/c1ccc(O)c2oc(-c3ccc(O)c(O)c3)cc12)O[C@H](Cc1ccc(O)c(O)c1)C(=O)O [Compound 1, (2r)-3-(3,4-dihydroxyphenyl)-2-[(E)-3-[2-(3,4-dihydroxyphenyl)-7-hydroxy-1-benzofuran-4-yl]prop-2-enoyl] oxypropanoic acid]	–
no inhibitory capability	Nc1nc(O)c2nc(CNc3ccc(C(=O)N[C@@H](CCC(=O)O)C(=O)O)cc3)cnc2n1 [Compound 10, (2S)-2-[(4-{[(2-amino-4-hydroxypteridin-6-yl)methyl]amino}phenyl) formamido] pentanedioic acid]	–
effectively inhibit	CCCCCCCCCCCCCCCCCCCCCCO [Compound 8, Docosan-1-ol]	milder cytotoxic effect
